Experimental data reported in patent US5821046A, “RNA oligonucleotides that bind HIV tat protein” (RiboTargets Holdings PLC, priority 1990, dated 1998).

Tests used:
tat protein [1] = assay: competition filter binding assay, bulge and stem mutant TAR RNAs (FIGS. 10-17, Tables 2 and 3); set-up: species or system HIV-1; conditions: 20 nM TAR RNA, read-out: D1/2
Text: The graphs shown in FIGS. 10 to 17 illustrate competition for tat binding between TAR RNA and various mutant TAR RNA sequences. In FIGS. 10 and 11 the region unpaired residues at positions 23, 24, 25, 23 being U, is shown to be essential for tat FIGS. 12, 13, 14, 15, 16 and 17 the base stem immediately adjacent to the U-rich bulge be required for efficient tat binding, with there being a requirement for a binding pair at residues 22 and 40 on one side of the bulge, and the base pair G26 - C39 on the other side of the bulge.
In Tables 2 and 3, D1/2 values for various mutant TAR RNA-L sequences are given along with the results of transactivation experiments in which the altered TAR RNA sequences were introduced into the CAT reporter plasmid D5-3-3. TAR RNA sequences which bind poorly are poor competitors and show increased values for D1/2.
Competitor RNA was produced by transcription as described in the method ---or FIG. 7. Binding reactions (500ul) contained 20 nM TAR RNA, 20,000 dpm ^32 P- labeled TAR RNA, 0.5 ug calf thymus DNA, 0.2 ug yeast tRNA, 40 Units RNAsin (Promega), 50 mM Tris-HCl pH7.5, 20 mM KCl in a final volume of 500 ul. […] The binding reaction mixtures were then filtered through pre-washed nitrocellulose filters (Millipore 0.45 u pore size) and the radioactivity retained on the filters assayed by liquid scintillation counting of the dried filters.

[2] = tested on: transactivation by tat (CAT reporter plasmid D5-3-3); assay: transactivation in vivo, altered TAR sequences in CAT reporter plasmid D5-3-3 (Tables 2 and 3); assay type: cell-based
Procedure: The TAR sequences depicted in FIG. 3 [SEQ ID NO: 1-11] were introduced into a test plasmid, pD5-3-3, which carries a LTR and approximately 300 bases of 5' flanking sequences derived from the infectious proviral clone NL4 (29). The bacterial chloramphenicol acetyltransferase (CAT) gene and SV40 intron and terminator sequence from pSV2-CAT (30) was inserted downstream of TAR by cloning into the HindIII site at +77. Trans-activation was measured either by cotransfection of HeLa cells with the test plasmids and the tat expression plasmid pC63-4-1 (6) (panels a-d in FIG. 10), or by transfection of the test plasmids alone into HeLa/C63/tat (clone 9) cells (panels e-h).
In these experiments, cells were plated at a density of 3×10^5 in a T25 flask and transfected by the calcium phosphate method (31). […] To ensure that CAT activity was measured in the linear range of the assay (30), at less than 50% conversion of chloramphenicol in its acetylated forms, for each transfection, three different aliquots containing from 5 to 70 ul extract were assayed for CAT activity. […] Reaction products were extracted with ethylacetate, separated by thin layer chromatography on silica plates and bands were counted in scintillation fluid to calculate the chloramphenicol conversion efficiency per 10 ul of extract. […]

tat protein [3] = assay: competition filter binding assay with chemically synthesized RNA (Table 4); set-up: species or system HIV-1; conditions: for IC50: 40 nM tat, read-out: D1/2
Procedure: Competition binding reactions (0.5ml) in TK buffer (50 mM Tris.HCl(pH7.9 at 0.5M and 22° G), 20 mM KCl ) included 10nM ^32 p labeled 59-mer (ca. 20,000 cpm) , 40nM tat protein, 5 ug/ml calf thymus DNA, 2 ug/ml yeast tRNA, 40 units of RNAsin (Promega) and varying concentrations (0-300 nM) of unlabeled competitor RNA (59-mer [SEQ ID NO: 1; ], 29-mer [SEQ ID NO: 12] or preannealed (slow cooled from 90° C.) 14-mer [SEQ ID NO: 14; nucleotides 2-15] and 17-mer [SEQ ID NO: 13; nucleotides 1- 17]). Binding was allowed to take place for 2-15 minutes on ice and each reaction was filtered through a twice prewashed (0.6 ml of ice-cold TK buffer) Millipore GS filter (2.5 cm disks, 0.22 um pore) and the filter washed with TK buffer (0.6 ml). Dried filters were counted by liquid scintillation. Results were plotted on a graph (FIG. 19) showing counts retained on the filter versus the concentration of competitor RNA added.
Competition binding reactions (0.5 ml) in TK buffer included 10 nM duplex formed from ^32 P-labeled and unlabeled 29-mer (ca. 20,000 cpm) or 10 nM duplex formed from ^32 P-labeled and unlabeled 17-mer annealed to unlabeled 14-mer, 40 nM tat protein, 5 ug/ml calf thymus DNA, 2 ug/ml yeast tRNA and varying concentrations (0-120 nM) of unlabeled competitor RNA (29-mer or modified 29-mer (FIG. 21), or 17-mer +14-mer duplex or modified 7-mer +14-mer duplex (22, 23 and 24) and were carried out as described above.
Competition binding reactions (0-5 ml) in TK buffer included 10 nM duplex formed from ^32 P-labelled (ca. 20,000 cpm) and unlabelled 18-mer [SEQ ID NO: 13] annealed to unlabelled 15-mer [SEQ ID NO: 14], 40 nM tat protein, 5 ug/ml calf thymus DNA, 2 ug/ml yeast TRNA and varying concentrations (0-120 nM) of unlabelled competitor RNA (59-mer [SEQ ID NO: 1] or 18-mer [SEQ ID NO: 13]+15-mer [SEQ ID NO: 14] duplex, or modified 18-mer [SEQ ID NO: […]

[4] = Table 2, mutations in the U-rich bulge
[5] = Table 3, mutations in the stem surrounding the U-rich bulge

HIV-1 TAR (UUU): full length HIV-1 TAR RNA of 59 residues prepared by transcription, wild type, UUU bulge (GGGUCUCUCUGGUUAGACCAGAUUUGAGCCUGGGAGCUCUCUGGCUAACUAGGGAACCC; unmodified RNA) [reference compound]
IC50 (tat protein [1]; [4]): 90 nM | IC50 (tat protein [1]; [5]): 90 nM | Units CAT activity/500 ng plasmid [2, 4]: 14,400 Units CAT activity/500 ng plas | Units CAT activity/500 ng plasmid [2, 5]: 5,600 Units CAT activity/500 ng plas | Krel (59-mer) (tat protein [3]; 32P-end labelled 18-mer annealed to 15-mer): 1.0 | IC50 (tat protein [3]; 32P-end labelled 18-mer annealed to 15-mer 10 nM, competitor 0-120 nM): 18 nM | Krel (59-mer) (tat protein [3]; 32P-labeled 59-mer transcript 10 nM): 1.0 | IC50 (tat protein [3]; 32P-labeled 59-mer transcript 10 nM, competitor 0-300 nM): 40 nM | Krel (29 or 14 +17) (tat protein [3]; relative to 14 +17 duplex, 32P-end labelled 18-mer annealed to 15-mer): 2.8
